Laboratory results published in patent publication US5438062A, “Benzo(5,6)cycloheptapyridines, compositions and methods of use” (Schering Corporation, priority 1987, dated 1995).

How the values were obtained:
[1] = tested on: PAF-induced platelet aggregation (platelet-rich plasma); assay: PAF antagonism, in vitro platelet aggregation assay; type: cell-based; details: dose giving 50 % PAF antagonism, human PRP, PAF 1-5×10^-8 M
Description: Blood was centrifuged at 110×g for 15 min. and the supernatant PRP carefully transferred into a polypropylene tube. Platelet-poor-plasma (PPP) was prepared by centrifuging PRP at 12,000×g for 2 min. in a Beckman Microfuge B. PRP was used within 3 hours of drawing the blood.
Platelet Aggregation Assay: When an aggregating agent such as PAF is added to PRP, platelets aggregate. An aggregometer quantifies this aggregation by measuring light (infra-red) transmission through PRP and comparing to PPP. The aggregation assays were performed using a dual-channel aggregometer (Model 440, Chrono-Log Corp., Hayertown, Pa.). PRP (0.45 ml) in aggregometer curettes was continually stirred (37° C.). Solutions of test compounds or vehicle were added to the PRP, and after incubation for 2 min., 10-15 μl aliquots of PAF solution were added so as to achieve a final concentration of 1-5×10^-8 M. Incubations were continued until the increase in light transmission reached a maximum (usually about 2 min). Values for inhibition were calculated by comparing maximal aggregation obtained in the absence and the presence of the compound. For each experiment, a standard PAF antagonist, such as alprazolam, was used as a positive internal control. […] The test results are shown below in Tables Ia, Ib and Ic.

[2] = tested on: PAF-induced bronchospasm; assay: PAF-induced bronchospasm in guinea pigs; type: in vivo; details: guinea pig
Description: PAF is also a known bronchoconstrictive agent in mammals.
B. PAF-INDUCED BRONCHOSPASM IN GUINEA PIGS
Non-sensitized guinea Digs were fasted overnight, and the following morning were anesthetized with 0.9 ml/kg i.p. of dialurethane (0.1 g/ml of diallybarbituric acid, 0.4 g/ml of ethylurea and 0.4 g/ml of urethane). The trachea was cannulated and the animals were ventilated by a Harvard rodent respirator at 55 strokes/min. with a stroke volume of 4 ml. A side arm to the tracheal cannula was connected to a Harvard pressure transducer to obtain a continuous measure of intratracheal pressure, which was recorded on a Harvard Polygraph. The jugular vein was cannulated for the administration of compounds. The animals were challenged i.v. with PAF (0.4 ug/kg in isotonic saline containing 0.25% BSA) and the peak increase in inflation pressure that occurred within 5 min. after challenge was recorded. Test compounds were administered either orally (2 hrs. prior to PAF as a suspension in 0.4% methylcellulose vehicle) or intravenously (10 min. prior to PAF as a solution in dimethylsulfoxide).

[3] = tested on: histamine-induced lethality; assay: Antihistamine activity: prevention of histamine-induced lethality in guinea pigs; type: in vivo; details: Cavia porcellus, guinea pig; for responders at 5 mg/kg: oral dose 5 mg/kg PO
Description: C. ANTIHISTAMINE ACTIVITY ASSAY
Prevention of Histamine-Induced Lethality in Guinea Pigs. Some of compounds shown below in Table I also were evaluated for antihistamine activity by their ability to protect female albino guinea pigs (250-350 g) against death induced by the intravenous injection of histamine dihydrochloride at 1.1 mg/kg, which is approximately twice the LD99. Doses of the antagonists were administered orally to separate groups of fasted animals 1 hour prior to the challenge with histamine and protection from death recorded for 30 minutes after histamine. ED50 values were determined for each drug by probit analysis.

[4] = CNS activity: antagonism of acetic acid writhing; details: mouse, in vivo; mice, oral, 15 minutes before acetic acid i.p.
Description: E. Antagonism of Acetic Acid Writhing. The acetic acid writhing test is a second test useful for determining CNS activity, and is essentially that described by HENDERSHOT and FORSAITH, J. Pharmac. […] Mice were injected with 0.6% aqueous acetic acid at 10 mg/kg i.p. 15 minutes after oral administration of the test drug. The number of writhes for each animal was counted during a 10 minute period starting 3 minutes after acetic acid treatment. A writhe was defined as a sequence of arching of the back, pelvic rotation and hind limb extension.

[5] = CNS activity: antagonism of electro-convulsive shock (ECS); details: mouse, in vivo; mice, oral, one hour before ECS; read-out: ECS test ED50
Description: F. Antagonism of Electro-Convulsive Shock (ECS). The ECS test is a third test useful for determining CNS activity. […] One hour after oral administration of the test drug or vehicle, mice were administered a 13 mA, 60 cycle a.c. electroconvulsant shock (ECS) for 0.2 seconds via corneal electrodes.

[6] = CNS activity: antagonism of physostigmine lethality; details: mouse, in vivo; mice, oral, 30 minutes prior to physostigmine 1.0 mg/kg s.c.
Description: D. Antagonism of Physostigmine Lethality. The physostigmine-induced lethality test is indicative of CNS activity and the test described is a modification of the technique reported by COLLIER et al., Br. J. Pharmac., 32, 295-310 (1968). physostigmine salicylate (1.0 mg/kg s.c.) produces 100% lethality when administered to mice grouped 10 per plastic cage (11×26×13 cm). Test agents were administered orally 30 minutes prior to physostigmine. The number of survivors were counted 20 minutes after physostigmine administration.

[7] = 0.5 h, 1 hour before histamine 1.1 mg/kg i.v., read-out: Antihistaminic Activity, % Survival

Row | Structure (SMILES) | IC50 [1] | inhibition of PAF-induced bronchospasm ([2]; 1 mg/kg intravenously) | responders at 1 mg/kg ([3]; 0.5 h, oral dose 1 mg/kg PO, 1 hour before histamine 1.1 mg/kg i.v., read-out: Antihistaminic Activity, % Survival) | responders at 5 mg/kg [3, 7] | ED50 [4] | ED50 [5] | ED50 ([3]; oral, probit analysis, read-out: Antihistaminic Activity, ED50) | ED50 [6] | inhibition of PAF-induced bronchospasm ([2]; 3 mg/kg (iv))
1 | CC(=O)N1CCC(=C2c3ccc(Cl)cc3CCc3cccnc32)CC1 [Z = O, R = CH3, R^3 = Cl, R^4 = H, 8-chloro-11-(1-acetyl-4-piperidylidene)-6,11-dihydro-5H-benzo[5,6]cyclohepta[1,2-b]pyridine] | 0.7 µM | 75% | 60% | 100% | > 160 mg/kg | > 320 mg/kg |  |  | 
2 | CN1CCC(=C2c3ccccc3CCc3cccnc32)CC1 [R^3 = H, R^4 = H, A = H, CZR = CH3, reference compound] | > 100 µM |  |  |  | 8.9 mg/kg | > 80 mg/kg | 0.009 mg/kg | 6.1 mg/kg | 
3 | CC(=O)N1CCC(=C2c3ccc(F)cc3CCc3cccnc32)CC1 [R = CH3, Z = O, R^3 = F, R^4 = H, 8-fluoro-11-(1-acetyl-4-piperidylidene)-6,11-dihydro-5H-benzo[5,6]cyclohepta[1,2-b]pyridine] | 0.7 µM |  |  | 20% |  |  |  |  | 99%
